Columns and labels:
Assay type in all cases: cell-based
[1] = tested on: COLO205 (colon); test: Inhibition of cell proliferation, CellTiter-Glo, COLO205; conditions: Homo sapiens, COLO 205, 72 h
Outline: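 Exponentially growing COLO205 cells in medium with 10% FBS were plated below 2000 cells/well at 37 °C, 5% CO2. Untreated wells served as controls.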

[2] = tested on: NCI-H929 (multiple myeloma); test: Inhibition of cell proliferation, CellTiter-Glo, NCI-H929; conditions: Homo sapiens, 72 h
Protocol: C. Inhibition of Cell Proliferation
Cell proliferation was measured by either CellTiter-Glo (measures cellular ATP level as a surrogate for total cell number) or by InCell analyzer (counts number of nuclei as a measure of cell number). For CellTiter-Glo assay, exponentially growing cell lines of different tumor origins, cultured in appropriate media containing 10% fetal bovine serum at 37° C. in a 5% CO2 incubator, were plated at low density (less than 2000 cells/well) in 96-well plates. Twenty four hours post-plating, cells were treated with different concentrations of test compounds ranging from 30 uM to 1.5 nM. Several wells were left untreated as a control. Seventy two hours post-treatment, cell numbers were determined using 50-100 ul per well of CellTiter-Glo (Promega #G7573). Plates were incubated at 37° C. for 30 minutes and the chemiluminescent signal was read on the Victor V or Envison 2100 reader. […]

[3] = biological target: T1, human IGF-1R (NIH-3T3 cells over expressing human IGF-1R) (Homo sapiens, UniProt P08069); test: IGF-1R cellular autophosphorylation (DELFIA); conditions: IGF-1 stimulated
T1 construct: expressed in transfected cells; host or cells: NIH-3T3 (mouse fibroblasts)
T1 sequence (P08069 31-1367): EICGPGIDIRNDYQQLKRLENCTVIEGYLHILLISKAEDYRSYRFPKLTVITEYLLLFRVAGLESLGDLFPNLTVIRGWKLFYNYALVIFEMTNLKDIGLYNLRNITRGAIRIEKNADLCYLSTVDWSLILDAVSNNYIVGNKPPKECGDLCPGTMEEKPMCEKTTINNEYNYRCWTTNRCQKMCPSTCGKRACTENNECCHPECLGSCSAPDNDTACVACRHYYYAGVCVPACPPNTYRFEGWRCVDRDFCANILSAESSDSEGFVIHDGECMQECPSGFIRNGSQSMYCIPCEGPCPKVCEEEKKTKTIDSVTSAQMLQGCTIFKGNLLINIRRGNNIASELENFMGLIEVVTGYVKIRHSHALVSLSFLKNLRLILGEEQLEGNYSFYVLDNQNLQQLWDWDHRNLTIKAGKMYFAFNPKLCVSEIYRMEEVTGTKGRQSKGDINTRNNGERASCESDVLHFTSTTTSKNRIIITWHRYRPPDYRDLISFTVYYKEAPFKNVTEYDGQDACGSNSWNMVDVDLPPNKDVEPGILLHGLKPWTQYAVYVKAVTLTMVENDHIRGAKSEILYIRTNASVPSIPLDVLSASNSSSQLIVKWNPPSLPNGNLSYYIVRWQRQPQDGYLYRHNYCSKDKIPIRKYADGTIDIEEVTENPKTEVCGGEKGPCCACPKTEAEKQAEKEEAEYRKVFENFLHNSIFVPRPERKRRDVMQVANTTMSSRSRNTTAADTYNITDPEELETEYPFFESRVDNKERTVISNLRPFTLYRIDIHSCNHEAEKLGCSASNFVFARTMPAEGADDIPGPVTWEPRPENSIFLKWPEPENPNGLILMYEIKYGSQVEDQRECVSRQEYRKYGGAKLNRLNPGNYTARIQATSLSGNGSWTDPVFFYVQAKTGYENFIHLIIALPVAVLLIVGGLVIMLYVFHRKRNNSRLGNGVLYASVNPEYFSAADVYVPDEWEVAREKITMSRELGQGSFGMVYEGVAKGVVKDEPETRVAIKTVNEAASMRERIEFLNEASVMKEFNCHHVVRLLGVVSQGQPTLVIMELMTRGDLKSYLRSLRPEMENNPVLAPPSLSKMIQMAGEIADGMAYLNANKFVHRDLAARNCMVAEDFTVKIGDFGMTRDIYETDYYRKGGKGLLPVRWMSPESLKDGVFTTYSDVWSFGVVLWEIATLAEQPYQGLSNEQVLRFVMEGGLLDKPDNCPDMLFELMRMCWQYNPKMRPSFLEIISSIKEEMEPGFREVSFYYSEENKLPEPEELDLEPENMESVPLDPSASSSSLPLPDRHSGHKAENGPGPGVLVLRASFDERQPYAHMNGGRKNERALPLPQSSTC
Outline: (§1)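 Read-out: DELFIA on lysates, receptor-specific capture antibody plus europium-labelled anti-phosphotyrosine, reported as % of IGF-1- or insulin-stimulated signal. Transfected NIH-3T3 cells got compound (30 uM–1.5 nM, 2 h) before a 15 min ligand pulse: IGF-1 30 ng/mL for IGF-1R, insulin 3 ug/mL for IR.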

[4] = biological target: T2, IR (NIH-3T3 cells over expressing human IGF-1R or IR) (Homo sapiens, UniProt P06213); test: IR cellular autophosphorylation (DELFIA); conditions: NIH-3T3 cells over expressing IR, insulin stimulated
T2 construct: expressed in transfected cells; host or cells: NIH-3T3 (mouse fibroblasts)
T2 sequence (P06213 28-1382): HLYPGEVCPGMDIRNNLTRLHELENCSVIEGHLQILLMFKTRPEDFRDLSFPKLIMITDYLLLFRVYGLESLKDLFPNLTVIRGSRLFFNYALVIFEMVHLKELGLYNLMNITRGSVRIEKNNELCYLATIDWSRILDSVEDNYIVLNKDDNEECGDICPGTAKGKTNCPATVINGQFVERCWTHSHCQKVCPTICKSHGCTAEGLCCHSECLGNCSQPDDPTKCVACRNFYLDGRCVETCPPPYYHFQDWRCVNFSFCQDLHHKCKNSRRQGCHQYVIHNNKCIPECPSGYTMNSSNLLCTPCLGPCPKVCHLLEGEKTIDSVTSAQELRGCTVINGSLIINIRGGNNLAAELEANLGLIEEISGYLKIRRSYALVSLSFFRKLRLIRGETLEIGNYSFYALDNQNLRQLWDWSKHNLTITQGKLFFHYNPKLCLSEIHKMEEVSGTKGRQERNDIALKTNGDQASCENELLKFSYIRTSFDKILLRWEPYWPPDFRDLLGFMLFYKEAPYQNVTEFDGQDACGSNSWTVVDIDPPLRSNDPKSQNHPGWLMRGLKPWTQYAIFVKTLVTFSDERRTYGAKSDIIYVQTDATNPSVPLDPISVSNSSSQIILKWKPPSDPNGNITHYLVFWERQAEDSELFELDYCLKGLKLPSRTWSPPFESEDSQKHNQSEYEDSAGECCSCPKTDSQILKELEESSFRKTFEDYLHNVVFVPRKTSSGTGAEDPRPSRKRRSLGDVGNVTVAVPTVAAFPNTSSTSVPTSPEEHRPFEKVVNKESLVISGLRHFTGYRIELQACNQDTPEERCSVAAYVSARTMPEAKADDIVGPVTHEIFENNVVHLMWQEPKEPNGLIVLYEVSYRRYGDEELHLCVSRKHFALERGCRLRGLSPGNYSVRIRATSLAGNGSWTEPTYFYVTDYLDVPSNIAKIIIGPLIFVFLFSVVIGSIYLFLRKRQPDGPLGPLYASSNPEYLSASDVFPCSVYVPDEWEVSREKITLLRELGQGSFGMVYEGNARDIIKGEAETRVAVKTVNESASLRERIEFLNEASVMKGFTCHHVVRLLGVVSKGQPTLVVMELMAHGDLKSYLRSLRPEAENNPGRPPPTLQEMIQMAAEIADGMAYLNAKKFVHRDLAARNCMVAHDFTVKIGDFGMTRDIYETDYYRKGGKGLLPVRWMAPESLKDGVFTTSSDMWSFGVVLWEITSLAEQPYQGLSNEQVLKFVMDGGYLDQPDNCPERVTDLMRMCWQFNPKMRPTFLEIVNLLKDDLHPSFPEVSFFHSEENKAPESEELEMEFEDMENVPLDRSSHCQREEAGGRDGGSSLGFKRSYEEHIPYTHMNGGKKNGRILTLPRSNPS
Outline: as §1

CCOc1ccc(-c2nc3ccccn3c2-c2ccnc(Nc3ccc(N4CCC(CCS(C)(=O)=O)CC4)cc3OC)n2)cc1C(=O)Nc1c(F)cccc1F [Example 200, N-(2,6-difluorophenyl)-2-(ethyloxy)-5-(3-{2-[(2-(methyloxy)-4-{4-[2-(methylsulfonyl)ethyl]-1-piperidinyl}phenyl)amino]-4-pyrimidinyl}imidazo[1,2-a]pyridin-2-yl)benzamide]
IC50 [1]: < 250 nM | IC50 [2]: < 250 nM | IC50 [3]: < 100 nM | IC50 [4]: < 100 nM

CCOc1ccc(-c2nc3ccccn3c2-c2ccnc(Nc3cc(C)c(N4CCN(CCS(C)(=O)=O)CC4)cc3OC)n2)cc1C(=O)Nc1c(F)cccc1F [Example 150, N-(2,6-difluorophenyl)-2-(ethyloxy)-5-(3-{2-[(5-methyl-2-(methyloxy)-4-{4-[2-(methylsulfonyl)ethyl]-1-piperazinyl}phenyl)amino]-4-pyrimidinyl}imidazo[1,2-a]pyridin-2-yl)benzamide]
IC50 [1]: < 250 nM | IC50 [2]: < 250 nM | IC50 [3]: < 100 nM | IC50 [4]: < 100 nM

CCOc1cc(N2CCC(N3CCN(CCC(F)(F)F)CC3)CC2)ccc1Nc1nccc(-c2c(-c3cccc(C(=O)Nc4c(F)cccc4F)c3)nc3ccccn23)n1 [Example 118, N-(2,6-difluorophenyl)-3-(3-{2-[(2-(ethyloxy)-4-{4-[4-(3,3,3-trifluoropropyl)-1-piperazinyl]-1-piperidinyl}phenyl)amino]-4-pyrimidinyl}imidazo[1,2-a]pyridin-2-yl)benzamide]
IC50 [1]: 250 to 1000 nM | IC50 [2]: 250 to 1000 nM | IC50 [3]: 100 to 500 nM | IC50 [4]: 100 to 500 nM

CCOc1ccc(-c2nc3ccccn3c2-c2ccnc(Nc3ccc(N4CCC(N5CCN(S(C)(=O)=O)CC5)CC4)cc3OC)n2)cc1C(=O)Nc1c(F)cccc1F [Example 228, N-(2,6-difluorophenyl)-2-(ethyloxy)-5-(3-{2-[(2-(methyloxy)-4-{4-[4-(methylsulfonyl)-1-piperazinyl]-1-piperidinyl}phenyl)amino]-4-pyrimidinyl}imidazo[1,2-a]pyridin-2-yl)benzamide]
IC50 [1]: < 250 nM | IC50 [2]: < 250 nM | IC50 [3]: < 100 nM | IC50 [4]: < 100 nM

COc1cc(N2CCC(N3CCN(S(C)(=O)=O)CC3)CC2)ccc1Nc1nccc(-c2c(-c3ccc(OC(C)C)c(C(=O)Nc4c(F)cccc4F)c3)nc3ccccn23)n1 [Example 227, N-(2,6-difluorophenyl)-2-[(1-methylethyl)oxy]-5-(3-{2-[(2-(methyloxy)-4-{4-[4-(methylsulfonyl)-1-piperazinyl]-1-piperidinyl}phenyl)amino]-4-pyrimidinyl}imidazo[1,2-a]pyridin-2-yl)benzamide]
IC50 [1]: < 250 nM | IC50 [2]: < 250 nM | IC50 [3]: < 100 nM | IC50 [4]: < 100 nM

COc1cc(N2CCC(C3CCN(CCF)CC3)CC2)ccc1Nc1nccc(-c2c(-c3ccc(OC)c(C(=O)Nc4c(F)cccc4F)c3)nc3ccccn23)n1 [Example 96, N-(2,6-difluorophenyl)-5-[3-(2-{[4-[1′-(2-fluoroethyl)-4,4′-bipiperidin-1-yl]-2-(methyloxy)phenyl]amino}-4-pyrimidinyl)imidazo[1,2-a]pyridin-2-yl]-2-(methyloxy)benzamide]
IC50 [1]: > 1000 nM | IC50 [2]: 250 to 1000 nM | IC50 [3]: < 100 nM | IC50 [4]: < 100 nM

COc1cc(N2CCC(N3CCN(CCS(C)(=O)=O)CC3)CC2)c(Cl)cc1Nc1nccc(-c2c(-c3cccc(C(=O)Nc4c(F)cccc4F)c3)nc3ccccn23)n1 [Example 114, 3-[3-(2-{[5-chloro-2-(methyloxy)-4-(4-{4-[2-(methylsulfonyl)ethyl]-1-piperazinyl}-1-piperidinyl)phenyl]amino}-4-pyrimidinyl)imidazo[1,2-a]pyridin-2-yl]-N-(2,6-difluorophenyl)-benzamide]
IC50 [1]: 250 to 1000 nM | IC50 [2]: < 250 nM | IC50 [3]: < 100 nM | IC50 [4]: < 100 nM

Reference: US20100216779A1 (GLAXOSMITHKLINE LLC, priority 2007, published 2010)
